Assay results published in the kinase profiling compilation of Christmann-Franck et al. (2016).

How the values were obtained:
Settings in all cases: compound 10.0 µM
[1] = molecular target: MAPK8 (human) (UniProt P45983)
[2] = molecular target: MKNK1 (human) (UniProt Q9BUB5)
[3] = molecular target: PAK7 (human) (UniProt Q9P286)
[4] = molecular target: IGF1R (human) (UniProt P08069)
[5] = molecular target: PDPK1 (human) (UniProt O15530)
[6] = molecular target: PRKCB2 (human) (UniProt P05771)
[7] = molecular target: ACVR1B (human) (UniProt P36896)
[8] = molecular target: PDGFRB (human) (UniProt P09619)
[9] = molecular target: HIPK4 (human) (UniProt Q8NE63)
[10] = molecular target: BLK (human) (UniProt P51451)
[11] = molecular target: LYN (human) (UniProt P07948)
[12] = molecular target: PRKX (human) (UniProt P51817)
[13] = molecular target: CDK6 CCND1 (human) (UniProt Q00534+P24385)
[14] = molecular target: PNCK (human) (UniProt Q6P2M8)
[15] = molecular target: CDK1 CCNB1 (human) (UniProt P06493+P14635)
[16] = molecular target: OXSR1 (human) (UniProt O95747)
[17] = molecular target: NEK3 (human) (UniProt P51956)
[18] = molecular target: PIM2 (human) (UniProt Q9P1W9)
[19] = molecular target: CDK5 CDK5R1 p25 (human) (UniProt Q15078+Q00535)
[20] = molecular target: MARK4 (human) (UniProt Q96L34)
[21] = molecular target: DYRK1B (human) (UniProt Q9Y463)
[22] = molecular target: EPHB4 (human) (UniProt P54760)
[23] = molecular target: FES (human) (UniProt P07332)
[24] = molecular target: PASK (human) (UniProt Q96RG2)
[25] = molecular target: CLK2 (human) (UniProt P49760)
[26] = molecular target: CDK1 CCNA2 (human) (UniProt P20248+P06493)
[27] = molecular target: AKT3 (human) (UniProt Q9Y243)
[28] = molecular target: SGK2 (human) (UniProt Q9HBY8)
[29] = molecular target: ADRBK1 (human) (UniProt P25098)
[30] = molecular target: GSK3B (human) (UniProt P49841)
[31] = molecular target: INSRR (human) (UniProt P14616)
[32] = molecular target: WNK2 (human) (UniProt Q9Y3S1)

Chain of SGK2 (human) (Q9HBY8 whole entry, looked up): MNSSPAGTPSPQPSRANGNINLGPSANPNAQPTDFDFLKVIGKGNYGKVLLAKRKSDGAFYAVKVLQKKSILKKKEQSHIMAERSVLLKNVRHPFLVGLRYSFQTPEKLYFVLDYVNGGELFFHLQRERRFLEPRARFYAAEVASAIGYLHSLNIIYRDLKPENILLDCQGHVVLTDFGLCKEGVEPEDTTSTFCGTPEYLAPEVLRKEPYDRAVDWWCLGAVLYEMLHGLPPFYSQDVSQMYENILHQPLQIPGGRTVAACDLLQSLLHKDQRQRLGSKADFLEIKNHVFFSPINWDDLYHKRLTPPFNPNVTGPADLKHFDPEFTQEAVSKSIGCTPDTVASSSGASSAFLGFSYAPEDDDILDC
Chain of CLK2 (human) (P49760 whole entry, looked up): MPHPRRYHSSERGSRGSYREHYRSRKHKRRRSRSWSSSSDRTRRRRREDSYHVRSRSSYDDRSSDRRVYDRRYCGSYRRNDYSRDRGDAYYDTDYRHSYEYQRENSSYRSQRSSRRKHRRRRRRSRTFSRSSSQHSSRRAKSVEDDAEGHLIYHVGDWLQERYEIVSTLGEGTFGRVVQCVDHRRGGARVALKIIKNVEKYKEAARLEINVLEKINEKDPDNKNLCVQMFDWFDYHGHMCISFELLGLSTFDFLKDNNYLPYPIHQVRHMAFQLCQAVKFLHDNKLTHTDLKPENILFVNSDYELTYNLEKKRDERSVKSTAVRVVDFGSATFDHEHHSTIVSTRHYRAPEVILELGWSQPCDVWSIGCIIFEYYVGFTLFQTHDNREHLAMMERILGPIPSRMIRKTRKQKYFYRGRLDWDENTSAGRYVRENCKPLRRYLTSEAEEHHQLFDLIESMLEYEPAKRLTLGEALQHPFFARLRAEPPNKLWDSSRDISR
Chain of MKNK1 (human) (Q9BUB5 whole entry, looked up): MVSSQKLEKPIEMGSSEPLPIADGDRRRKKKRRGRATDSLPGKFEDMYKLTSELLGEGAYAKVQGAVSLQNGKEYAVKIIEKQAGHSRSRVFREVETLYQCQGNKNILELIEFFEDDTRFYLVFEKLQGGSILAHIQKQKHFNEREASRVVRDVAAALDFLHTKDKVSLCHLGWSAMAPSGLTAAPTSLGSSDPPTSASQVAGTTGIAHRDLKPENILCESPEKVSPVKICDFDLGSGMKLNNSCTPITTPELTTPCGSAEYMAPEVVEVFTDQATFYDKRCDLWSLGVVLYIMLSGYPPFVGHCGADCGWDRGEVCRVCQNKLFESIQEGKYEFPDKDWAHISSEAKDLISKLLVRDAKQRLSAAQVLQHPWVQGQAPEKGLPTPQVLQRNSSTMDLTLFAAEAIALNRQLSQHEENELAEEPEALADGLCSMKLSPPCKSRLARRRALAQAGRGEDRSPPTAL
Chain of PDPK1 (human) (O15530 whole entry, looked up): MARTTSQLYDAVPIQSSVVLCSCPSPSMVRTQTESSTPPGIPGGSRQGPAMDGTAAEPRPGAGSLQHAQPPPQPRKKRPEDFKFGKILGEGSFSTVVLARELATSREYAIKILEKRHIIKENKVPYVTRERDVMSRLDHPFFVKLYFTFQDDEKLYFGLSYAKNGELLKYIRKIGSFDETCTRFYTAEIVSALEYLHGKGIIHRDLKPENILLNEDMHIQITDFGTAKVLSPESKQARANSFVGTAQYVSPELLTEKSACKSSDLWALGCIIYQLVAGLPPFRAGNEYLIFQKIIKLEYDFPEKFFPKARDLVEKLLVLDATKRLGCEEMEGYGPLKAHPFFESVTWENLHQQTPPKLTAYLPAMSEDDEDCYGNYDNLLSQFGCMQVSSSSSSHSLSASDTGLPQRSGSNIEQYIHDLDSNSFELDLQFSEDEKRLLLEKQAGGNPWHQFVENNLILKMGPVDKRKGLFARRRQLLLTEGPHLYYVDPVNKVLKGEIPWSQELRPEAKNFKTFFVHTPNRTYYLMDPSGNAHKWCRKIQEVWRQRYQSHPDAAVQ
Chain of FES (human) (P07332 whole entry, looked up): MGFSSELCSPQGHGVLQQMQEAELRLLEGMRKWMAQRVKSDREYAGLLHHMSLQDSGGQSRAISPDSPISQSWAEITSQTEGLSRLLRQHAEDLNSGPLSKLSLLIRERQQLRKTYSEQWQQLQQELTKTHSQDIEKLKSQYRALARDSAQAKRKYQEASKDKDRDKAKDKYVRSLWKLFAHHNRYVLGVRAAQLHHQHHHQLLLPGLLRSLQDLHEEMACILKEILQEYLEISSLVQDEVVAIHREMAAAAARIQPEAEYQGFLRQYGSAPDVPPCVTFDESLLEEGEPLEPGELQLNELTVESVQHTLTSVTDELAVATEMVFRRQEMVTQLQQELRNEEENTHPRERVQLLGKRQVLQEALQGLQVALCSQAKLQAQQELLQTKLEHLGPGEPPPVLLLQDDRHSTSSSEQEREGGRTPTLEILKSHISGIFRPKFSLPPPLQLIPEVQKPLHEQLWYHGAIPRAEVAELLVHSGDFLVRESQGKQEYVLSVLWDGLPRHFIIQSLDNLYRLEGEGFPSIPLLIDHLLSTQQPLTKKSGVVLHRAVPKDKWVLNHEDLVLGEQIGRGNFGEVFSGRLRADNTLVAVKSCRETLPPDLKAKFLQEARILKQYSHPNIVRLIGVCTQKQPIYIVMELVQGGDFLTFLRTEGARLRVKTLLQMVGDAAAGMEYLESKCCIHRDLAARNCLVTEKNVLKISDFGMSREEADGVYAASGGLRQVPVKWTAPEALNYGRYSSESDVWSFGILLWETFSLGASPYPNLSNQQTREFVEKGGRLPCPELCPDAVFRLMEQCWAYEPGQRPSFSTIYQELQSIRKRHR
Chain of INSRR (human) (P14616 whole entry, looked up): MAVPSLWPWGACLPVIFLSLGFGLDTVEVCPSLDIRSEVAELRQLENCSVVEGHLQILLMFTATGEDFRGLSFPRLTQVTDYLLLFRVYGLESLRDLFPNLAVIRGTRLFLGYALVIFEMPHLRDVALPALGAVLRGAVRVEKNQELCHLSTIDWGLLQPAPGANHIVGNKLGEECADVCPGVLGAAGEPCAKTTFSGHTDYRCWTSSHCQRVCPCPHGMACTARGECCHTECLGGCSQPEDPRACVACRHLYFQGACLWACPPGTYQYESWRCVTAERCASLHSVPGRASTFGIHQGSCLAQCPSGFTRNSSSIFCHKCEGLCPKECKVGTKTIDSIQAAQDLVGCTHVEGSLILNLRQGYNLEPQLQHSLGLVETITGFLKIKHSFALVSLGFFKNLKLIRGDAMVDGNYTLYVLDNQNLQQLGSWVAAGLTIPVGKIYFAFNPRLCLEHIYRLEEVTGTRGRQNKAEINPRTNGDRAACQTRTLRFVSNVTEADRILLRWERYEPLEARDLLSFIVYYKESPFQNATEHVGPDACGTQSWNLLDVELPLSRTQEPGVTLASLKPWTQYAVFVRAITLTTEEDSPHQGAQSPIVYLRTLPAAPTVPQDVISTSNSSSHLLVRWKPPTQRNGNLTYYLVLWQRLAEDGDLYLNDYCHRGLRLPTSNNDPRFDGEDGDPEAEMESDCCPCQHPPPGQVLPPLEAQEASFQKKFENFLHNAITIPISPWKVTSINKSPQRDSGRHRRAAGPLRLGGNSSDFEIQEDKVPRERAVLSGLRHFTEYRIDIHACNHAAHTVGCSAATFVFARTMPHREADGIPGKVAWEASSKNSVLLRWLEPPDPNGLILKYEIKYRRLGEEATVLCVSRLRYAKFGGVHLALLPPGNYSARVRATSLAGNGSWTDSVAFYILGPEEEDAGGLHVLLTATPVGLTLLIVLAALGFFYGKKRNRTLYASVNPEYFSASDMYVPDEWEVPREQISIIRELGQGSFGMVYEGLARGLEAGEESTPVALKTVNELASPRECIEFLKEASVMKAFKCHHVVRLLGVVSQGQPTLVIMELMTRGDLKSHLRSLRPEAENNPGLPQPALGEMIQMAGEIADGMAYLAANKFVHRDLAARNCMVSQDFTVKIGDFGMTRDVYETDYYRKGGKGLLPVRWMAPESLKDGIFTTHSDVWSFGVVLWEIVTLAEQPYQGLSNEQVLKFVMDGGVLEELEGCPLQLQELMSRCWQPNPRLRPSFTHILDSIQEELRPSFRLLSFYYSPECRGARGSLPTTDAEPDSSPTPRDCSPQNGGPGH
Chain of ACVR1B (human) (P36896 whole entry, looked up): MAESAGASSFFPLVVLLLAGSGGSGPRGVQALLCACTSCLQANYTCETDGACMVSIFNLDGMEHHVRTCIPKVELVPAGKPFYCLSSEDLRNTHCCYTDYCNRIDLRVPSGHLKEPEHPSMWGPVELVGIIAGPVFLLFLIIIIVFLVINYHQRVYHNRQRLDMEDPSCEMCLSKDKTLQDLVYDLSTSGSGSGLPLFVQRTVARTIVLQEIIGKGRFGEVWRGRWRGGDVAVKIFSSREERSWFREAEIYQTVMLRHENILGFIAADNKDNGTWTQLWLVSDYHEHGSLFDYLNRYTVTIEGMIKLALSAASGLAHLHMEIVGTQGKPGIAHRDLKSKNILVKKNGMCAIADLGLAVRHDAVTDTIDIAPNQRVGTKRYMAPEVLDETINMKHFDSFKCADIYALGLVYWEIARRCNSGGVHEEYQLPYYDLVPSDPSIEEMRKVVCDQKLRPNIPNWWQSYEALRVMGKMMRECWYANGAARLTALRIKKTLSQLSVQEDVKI
Chain of AKT3 (human) (Q9Y243 whole entry, looked up): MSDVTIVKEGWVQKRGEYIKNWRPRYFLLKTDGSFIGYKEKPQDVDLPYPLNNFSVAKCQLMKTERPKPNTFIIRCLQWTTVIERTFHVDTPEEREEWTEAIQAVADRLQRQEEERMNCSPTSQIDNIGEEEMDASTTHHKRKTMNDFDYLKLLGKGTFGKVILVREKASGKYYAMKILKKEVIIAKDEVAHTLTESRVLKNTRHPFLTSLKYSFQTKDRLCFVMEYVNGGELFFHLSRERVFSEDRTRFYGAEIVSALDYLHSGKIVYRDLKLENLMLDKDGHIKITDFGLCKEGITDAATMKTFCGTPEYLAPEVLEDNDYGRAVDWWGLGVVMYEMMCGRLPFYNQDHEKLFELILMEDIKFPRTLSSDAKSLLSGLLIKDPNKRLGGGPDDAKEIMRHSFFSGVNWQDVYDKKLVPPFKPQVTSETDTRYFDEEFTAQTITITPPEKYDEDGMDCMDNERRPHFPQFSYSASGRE

## CC[C@H](C)n1cc(C)c2c(C(=O)NCc3c(C)cc(C)[nH]c3=O)cc(-c3ccc(N4CCNCC4)nc3)cc21
[1]
  residual activity: 99.5%
[2]
  residual activity: 97%
[3]
  residual activity: 102%
[4]
  residual activity: 96.5%
[5]
  residual activity: 100%
[6]
  residual activity: 94%
[7]
  residual activity: 98.5%
[8]
  residual activity: 102%
[9]
  residual activity: 88%
[10]
  residual activity: 81.5%
[11]
  residual activity: 104%
[12]
  residual activity: 80.5%
[13]
  residual activity: 106%
[14]
  residual activity: 88%
[15]
  residual activity: 99%
[16]
  residual activity: 92.5%
[17]
  residual activity: 107%
[18]
  residual activity: 99%
[19]
  residual activity: 97.5%
[20]
  residual activity: 83%
[21]
  residual activity: 90.5%
[22]
  residual activity: 95%
[23]
  residual activity: 99%
[24]
  residual activity: 90.5%
[25]
  residual activity: 89.5%
[26]
  residual activity: 92.5%
[27]
  residual activity: 94%
[28]
  residual activity: 105%
[29]
  residual activity: 108%
[30]
  residual activity: 96%
[31]
  residual activity: 88%
[32]
  residual activity: 93%
